# Values quoted from earlier work as cited in patent US20060058589A1, “Animal model to evaluate visceral pain perception” (priority 2002, published 2006).
# Tested on: visceromotor response to duodenal distention
# Settings: conscious, freely moving rats; dose-dependent manner
smiles,measurement,value
CN1CC[C@]23c4c5ccc(O)c4O[C@H]2[C@@H](O)C=C[C@H]3[C@H]1C5 [morphine],visceromotor response to duodenal distention,inhibited
